Source: US20200261391A1, “METHODS OF REDUCING THE RISK OF A CARDIOVASCULAR EVENT IN A STATIN-TREATED SUBJECT BY INCREASING SERUM AND PLASMA EPA AND DPA LEVELS” (Amarin Pharmaceuticals Ireland Limited, priority 2019, published 2020)

System: TG, non-HDL-C, LDL-C, HDL-C, apo B, hsCRP
Assay: REDUCE-IT trial: fasting lipid, lipoprotein and inflammatory marker data over time
Format: in vivo, human
Method: Fasting Lipid Profile: The fasting lipid panel included: TG, TC, LDL-C, HDL-C, non-HDL-C, and VLDL-C. At all visits, LDL-C was calculated using the Friedewald equation. At Visit 1 and Visit 1.1 direct LDL-C were used if at the same visit TG>400 mg/dL (4.52 mmol/L). These LDL-C values were used for the evaluation of the LDL-C inclusion criterion (LDL-C qualifying measurements for randomization) and for the assessment of changes in the statin therapy when LDL-C was not at goal. […] In addition, irrespective of the TG levels, at Visit 2 (0 Months of Follow-up, baseline) and at Visit 4 (12 Months of Follow-up), LDL-C were measured by preparative ultracentrifugation. These preparative ultracentrifugation LDL-C measurements were used in the statistical analysis including the calculation of the percent change from baseline (1 year versus baseline). Hopkins LDL-C was calculated for each visit.
Biomarkers Assays: The biomarker assays included: hsCRP, Apo B and hsTnT.
The fasting lipid panel was tested at Screening (Visit 1 or Visit 1.1), Randomization visit (Visit 2; Day 0), Visit 3 (Day 120; ˜4 Months) and all other follow-up visits including the last visit. For change from baseline to 1 year preparative ultracentrifugation measurements for LDL-C were analyzed, unless this value was missing. If the LDL-C preparative ultracentrifugation values were missing, then another LDL-C value was used, with prioritization of values obtained from LDL-C Direct measurements, followed by LDL-C derived by the Friedewald calculation (only for subjects with TG<400 mg/dL), and finally LDL-C derived using the calculation published by Hopkins University investigators (Martin S S, Blaha M J, Elshazly M B, et al. Comparison of a novel method vs the Friedewald equation for estimating low-density lipoprotein cholesterol levels from the standard lipid profile. JAMA. 2013; 310:2061-8.). In addition, change from baseline to day 120 in LDL-C utilizing Friedewald's and Hopkins methods was analyzed, using the arithmetic mean of LDL-C obtained at Visit 2 (Day 0) and the preceding Visit 1 (or Visit 1.1). If one of these values was missing, the single available LDL-C value was used. LDL-C according to Hopkins was calculated at each visit.
The randomization visit was considered Baseline. If a baseline value was not available from the randomization visit, then the latest screening value was used. For measurements of lipids, lipoproteins and inflammatory markers, the change and the percent change were summarized at each visit. Since these biomarkers are typically not normally distributed, the Wilcoxon rank-sum test was used for treatment comparisons of the percent change from baseline, and medians and quartiles were provided for each treatment group. The medians of the differences between the treatment groups and 95% CIs were estimated with the Hodges-Lehmann method. In addition, shift-tables were generated as appropriate.

## CC/C=C\C/C=C\C/C=C\C/C=C\C/C=C\CCCC(=O)OCC [icosapent ethyl, eicosapentaenoic acid ethyl ester]
Year 2
  Apo B Median Observed Value: 80.0 mg/dL
  HDL-C Median % Change from Baseline: 0.0%
  HDL-C Median Absolute Change from Baseline: 0.0 mg/dL
  HDL-C Median Observed Value: 40.0 mg/dL
  LDL-C Hopkins Median % Change from Baseline: −0.2%
  LDL-C Hopkins Median Absolute Change from Baseline: -0.1 mg/dL
  LDL-C Hopkins Median Observed Value: 85.5 mg/dL
  Log hsCRP Median % Change from Baseline: −21.8%
  Log hsCRP Median Absolute Change from Baseline: −0.1 mg/L
  Log hsCRP Median Observed Value: 0.6 mg/L
  Non-HDL-C Median % Change from Baseline: −3.1%
  Non-HDL-C Median Absolute Change from Baseline: -3.5 mg/dL
  Non-HDL-C Median Observed Value: 113.0 mg/dL
  Triglycerides Median % Change from Baseline: −18.9%
  Triglycerides Median Absolute Change from Baseline: -38.5 mg/dL
  Triglycerides Median Observed Value: 173.0 mg/dL
  hsCRP Median % Change from Baseline: −13.9%
  hsCRP Median Absolute Change from Baseline: -0.2 mg/L
  hsCRP Median Observed Value: 1.8 mg/L
Year 2, vs placebo
  Apo B Between Group Difference Median % Change from Baseline: −9.7%
  Apo B Between Group Difference Median Absolute Change from Baseline: -8.0 mg/dL
  HDL-C Between Group Difference Median % Change from Baseline: −4.6%
  HDL-C Between Group Difference Median Absolute Change from Baseline: -2.0 mg/dL
  LDL-C Hopkins Between Group Difference Median % Change from Baseline: −11.1%
  LDL-C Hopkins Between Group Difference Median Absolute Change from Baseline: -9.4 mg/dL
  Log hsCRP Between Group Difference Median % Change from Baseline: −22.5%
  Log hsCRP Between Group Difference Median Absolute Change from Baseline: −0.4 mg/L
  Non-HDL-C Between Group Difference Median % Change from Baseline: −12.5%
  Non-HDL-C Between Group Difference Median Absolute Change from Baseline: -14.5 mg/dL
  Triglycerides Between Group Difference Median % Change from Baseline: −19.7%
  Triglycerides Between Group Difference Median Absolute Change from Baseline: -43.8 mg/dL
  hsCRP Between Group Difference Median % Change from Baseline: −39.9%
  hsCRP Between Group Difference Median Absolute Change from Baseline: -0.9 mg/L
Year 3
  HDL-C Median % Change from Baseline: 0.0%
  HDL-C Median Absolute Change from Baseline: 0.0 mg/dL
  HDL-C Median Observed Value: 40.0 mg/dL
  LDL-C Hopkins Median % Change from Baseline: −1.2%
  LDL-C Hopkins Median Absolute Change from Baseline: -1.0 mg/dL
  LDL-C Hopkins Median Observed Value: 84.6 mg/dL
  Non-HDL-C Median % Change from Baseline: −4.2%
  Non-HDL-C Median Absolute Change from Baseline: -4.8 mg/dL
  Non-HDL-C Median Observed Value: 112.0 mg/dL
  Triglycerides Median % Change from Baseline: −21.7%
  Triglycerides Median Absolute Change from Baseline: -44.0 mg/dL
  Triglycerides Median Observed Value: 167.0 mg/dL
Year 3, vs placebo
  HDL-C Between Group Difference Median % Change from Baseline: −3.8%
  HDL-C Between Group Difference Median Absolute Change from Baseline: -1.5 mg/dL
  LDL-C Hopkins Between Group Difference Median % Change from Baseline: −10.4%
  LDL-C Hopkins Between Group Difference Median Absolute Change from Baseline: -8.7 mg/dL
  Non-HDL-C Between Group Difference Median % Change from Baseline: −12.4%
  Non-HDL-C Between Group Difference Median Absolute Change from Baseline: -14.5 mg/dL
  Triglycerides Between Group Difference Median % Change from Baseline: −20.3%
  Triglycerides Between Group Difference Median Absolute Change from Baseline: -45.5 mg/dL
Year 4
  HDL-C Median % Change from Baseline: 1.0%
  HDL-C Median Absolute Change from Baseline: 0.5 mg/dL
  HDL-C Median Observed Value: 40.5 mg/dL
  LDL-C Hopkins Median % Change from Baseline: −0.6%
  LDL-C Hopkins Median Absolute Change from Baseline: -0.5 mg/dL
  LDL-C Hopkins Median Observed Value: 83.6 mg/dL
  Non-HDL-C Median % Change from Baseline: −4.2%
  Non-HDL-C Median Absolute Change from Baseline: -5.0 mg/dL
  Non-HDL-C Median Observed Value: 110.5 mg/dL
  Triglycerides Median % Change from Baseline: −21.7%
  Triglycerides Median Absolute Change from Baseline: -42.5 mg/dL
  Triglycerides Median Observed Value: 163.0 mg/dL
Year 4, vs placebo
  HDL-C Between Group Difference Median % Change from Baseline: −3.9%
  HDL-C Between Group Difference Median Absolute Change from Baseline: -1.5 mg/dL
  LDL-C Hopkins Between Group Difference Median % Change from Baseline: −10.6%
  LDL-C Hopkins Between Group Difference Median Absolute Change from Baseline: -8.9 mg/dL
  Non-HDL-C Between Group Difference Median % Change from Baseline: −12.0%
  Non-HDL-C Between Group Difference Median Absolute Change from Baseline: -14.0 mg/dL
  Triglycerides Between Group Difference Median % Change from Baseline: −17.4%
  Triglycerides Between Group Difference Median Absolute Change from Baseline: -38.0 mg/dL
Year 5
  HDL-C Median % Change from Baseline: 0.0%
  HDL-C Median Absolute Change from Baseline: 0.0 mg/dL
  HDL-C Median Observed Value: 41.0 mg/dL
  LDL-C Hopkins Median % Change from Baseline: −0.7%
  LDL-C Hopkins Median Absolute Change from Baseline: -0.8 mg/dL
  LDL-C Hopkins Median Observed Value: 82.2 mg/dL
  Non-HDL-C Median % Change from Baseline: −4.4%
  Non-HDL-C Median Absolute Change from Baseline: -5.0 mg/dL
  Non-HDL-C Median Observed Value: 109.0 mg/dL
  Triglycerides Median % Change from Baseline: −20.0%
  Triglycerides Median Absolute Change from Baseline: -38.0 mg/dL
  Triglycerides Median Observed Value: 158.0 mg/dL
Year 5, vs placebo
  HDL-C Between Group Difference Median % Change from Baseline: −3.0%
  HDL-C Between Group Difference Median Absolute Change from Baseline: -1.5 mg/dL
  LDL-C Hopkins Between Group Difference Median % Change from Baseline: −8.0%
  LDL-C Hopkins Between Group Difference Median Absolute Change from Baseline: -6.6 mg/dL
  Non-HDL-C Between Group Difference Median % Change from Baseline: −9.9%
  Non-HDL-C Between Group Difference Median Absolute Change from Baseline: -11.0 mg/dL
  Triglycerides Between Group Difference Median % Change from Baseline: −16.7%
  Triglycerides Between Group Difference Median Absolute Change from Baseline: -33.5 mg/dL
In vivo
  reduction in hsCRP: 40%
